# From patent US20220125877A1, “METHOD FOR TREATING COLORECTAL CANCER” (SUN YAT-SEN UNIVERSITY, priority 2019, published 2022)
# What was measured:
# [1] = test system: KRAS G13D, G12D and G12V mutation colorectal cancer cells; experiment: Cell viability, metformin with a gradient concentration; format: cell-based, human; settings: FIG. 6
# [2] = test system: LoVo cell line with knock-down KRAS, TET1/2 interfered; experiment: Proliferation with TET1/2 interfered; format: cell-based, human; settings: MATE1 down-regulated once again, FIG. 16G
# [3] = test system: KRAS wildtype CRC cells SW48; experiment: Proliferation detection (Edu method); format: cell-based, human; settings: FIGS. 8A-B
# Method: (§1) Edu was used to detect the ratio of proliferative cells, a plate clone formation experiment and PI/Rnase simple staining were used to detect the distribution of cell cycles, thus making the effect of metformin on the proliferation of CRC cells clear.
# (§2) 1) Cell treatment by Edu: cells were cultured in a culture dish (covered with a sterilized cover glass), and subjected adherence growth for 12 h, and starvation treatment over the night, and treated with the addition of an agent for the corresponding time, and then added with EdU (final concentration: 10 μM) at the last 2-6 h (EdU treatment time was determined according to the cell growth rate).
# (§3) 2) Immobilization: 4% paraformaldehyde was added according to 1 mL/well to immobilize the cells for 15 min at room temperature.
# (§4) 3) Slide washing: 3% BSA (dissolved by PBS) was used according to 1 mL/well for washing for twice.
# (§5) 4) Rupture of membrane: the cells were treated by 0.5% TritonX-100 according to 1 mL/well for 20 min at room temperature.
# (§6) 5) Slide washing: the same as the step 3).
# (§7) 6) Addition of a ClickiT reaction mixture: the reaction mixture was added per […] in the dark for 30 min at room temperature. […]
# (§8) 11) The slide was observed under a full-automatic positive fluorescence microscope to analyze the result, and shoot and recorded (100×, 200×, 400×, the original image was kept).
# [4] = test system: KRAS mutation CRC cells LoVo; experiment: Proliferation detection (Edu method); format: cell-based, human; settings: FIGS. 8A-B
# Method: as §1, §2, §3, §4, §5, §6, §7, §8
# [5] = test system: KRAS mutation CRC cells HCT-116; experiment: Cell viability (CCK-8 method); format: cell-based, human
# Method: (§9) The cells were inoculated on a plate according to the concentration of 5000 cells/well (48-well plate, 200 μl per well). The cells were treated with different ways according to the experimental requirements, and 10 μl CCK8 solution was added after a period of time. The cells were incubated for 1 h in an incubator; 200 μl supernatant were absorbed into a 96-well ELISA plate to determine OD450 with a microplate reader.
# (§10) (2) Metformin with a gradient concentration was used in vitro to treat KRAS wildtype colorectal cancer cell lines SW48 and CaCO2, KRAS G13D-mutation colorectal cancer cell lines HCT-116 and LoVo, as well as KRAS G12V-mutation colorectal cancer cell lines SW480 and SW620. In addition, the metformin with a gradient concentration was used to treat the KRAS wildtype colorectal cancer cell line SW48 transfected with KRAS G12V, KRAS G13D and KRAS G12D plasmids.
# (§11) 5 μM and 10 μM lansoprazole were used to treat HCT-116 and LoVo simultaneously; metformin was used to treat the cells at the same time for 48 h; the cell viability was detected by CCK8.
# [6] = test system: KRAS mutation CRC cells LoVo; experiment: Cell viability (CCK-8 method); format: cell-based, human
# Method: as §9, §10, §11
# [7] = test system: LoVo cell line with knock-down KRAS protein; experiment: Cell cycle in KRAS knock-down cells; format: cell-based, human; settings: relative to LoVo, FIG. 8D
# Method: 1) KRAS interference lentivirus (sh-KRAS) was constructed and packaged by Shanghai Genechem Co., LTD.
# 2) LoVo cells were subcultured to a 6-well plate (about 1×10^5/well), when cells were subjected to adherence growth, and the degree of cell fusion was not greater than 50%, fresh culture solution was replaced ahead of 2 h, and 10 μg/mL lentivirus infection enhancer polybrene was added. Multiplicity of Infection (MOI) of LoVo was about 20; lentivirus was added according to the formula: adding amount of lentivirus per well (μl)=MOI×cell population/titer (TU/ml)×1000. The culture solution was replaced after 16-18 h, and 1 μM puromycin was conventionally added for screening the cell line whose RNA stable expression was interfered by KRAS.
# 1) The cells were inoculated onto a 6-well plate, and subjected to adherence growth for 12 h, then starvation treatment over the night, and treated with the addition of an agent for 24 h, then the cells were digested and washed for 3 times with PBS and centrifuged to discard supernatant; −20° C. pre-cooled 70% ethanol was added dropwise, and the cells were mixed well by vortex, and immobilized over the night at −20° C.
# 2) The cells were horizontally centrifuged for 10 min at 2000 rpm to discard the supernatant; then the cells were washed with PBS for 2-3 times to remove the residual ethanol with centrifugation for 5 min each time. […]
# [8] = Concentration of metformin in tumor tissues by mass spectrometry; format: in vivo; settings: KRAS mutation vs KRAS wildtype tumor tissues, FIG. 11F
# Text: The concentration of metformin in KRAS wildtype and mutation tumor tissues was detected by mass spectrometry.
# [9] = test system: KRAS wildtype CRC cells SW48; experiment: Cell viability (CCK-8 method); format: cell-based; settings: Homo sapiens, CCK8, FIG. 10
# Method: as §9, §10, §11
# [10] = test system: KRAS wildtype CRC cells CaCO2; experiment: Cell viability (CCK-8 method); format: cell-based; settings: Homo sapiens, Caco-2; CCK8, FIG. 10
# Method: as §9, §10, §11
# [11] = test system: LoVo cell line with stable knock-down KRAS; experiment: Concentration of metformin in cells by mass spectrometry; format: cell-based, human; settings: relative to LoVo, FIG. 11D
# Text: (§12) The increase of concentration of metformin in KRAS mutation cells was verified by using the KRAS (G13D) mutation cells constructed via the CRISPR/Cas9 system and the LoVo cell line with stable knock-down KRAS.
# (§13) Metformin was used to detect the KRAS (G13D) mutation cells constructed via the CRISPR/Cas9 system and the LoVo cell line with stable knock-down KRAS to collect cell lysis solution at different time points, and the concentration of metformin in the cells was detected by mass spectrometry.
# [12] = test system: KRAS (G13D) mutation cells constructed via the CRISPR/Cas9 system; experiment: as above; format: cell-based, human; settings: compared with the control cell, FIG. 11C
# Text: as §12, §13
# [13] = with 5 μM and 10 μM lansoprazole, 48 h, FIGS. 11A-B
smiles,measurement,setting,value
CN(C)C(=N)N=C(N)N [metformin],effect on cell viability,[1],has an inhibiting effect
same,inhibiting effect on proliferation of tumor cells with TET1/2 interfered,[2],accelerating the inhibiting effect
same,ratio of proliferating-phase cells (EdU positive),[3],no obvious effect
same,ratio of proliferating-phase cells (EdU positive),[4],decreases
same,IC50,"[5]; Homo sapiens, HCT-116, CCK8, FIG. 10",23.7 mM
same,increase of IC50 of metformin after lansoprazole,[5]; [13],1.2-2.5 times
same,IC50,"[6]; Homo sapiens, LoVo, CCK8, FIG. 10",8.18 mM
same,increase of IC50 of metformin after lansoprazole,[6]; [13],1.2-2.5 times
same,inhibiting effect on transformation from G1 phase to phase S after interference of KRAS (G13D) expression,[7],down-regulate the inhibiting effect
same,concentration of metformin in tumor tissues,[8],higher than that in the KRAS wildtype tumor tissues
same,IC50,[9],90.8 mM
same,IC50,[10],88.1 mM
same,concentration of metformin in cells,[11],decreases obviously
same,concentration of metformin in cells,[12],obviously increased concentration
